The target of experiment [1] is G protein-coupled receptor kinase 5 (Homo sapiens, UniProt P34947).
Description: Inhibition of GRK-5 (unknown origin) preincubated with enzyme for 10 mins before adding peptide substrate and ATP measured after 1 hr by LANCE-TR-FRET assay
In experiment [2] the target is T1, Beta-adrenergic receptor kinase 1 (Homo sapiens, UniProt P25098).
T1 sequence (P25098 whole entry): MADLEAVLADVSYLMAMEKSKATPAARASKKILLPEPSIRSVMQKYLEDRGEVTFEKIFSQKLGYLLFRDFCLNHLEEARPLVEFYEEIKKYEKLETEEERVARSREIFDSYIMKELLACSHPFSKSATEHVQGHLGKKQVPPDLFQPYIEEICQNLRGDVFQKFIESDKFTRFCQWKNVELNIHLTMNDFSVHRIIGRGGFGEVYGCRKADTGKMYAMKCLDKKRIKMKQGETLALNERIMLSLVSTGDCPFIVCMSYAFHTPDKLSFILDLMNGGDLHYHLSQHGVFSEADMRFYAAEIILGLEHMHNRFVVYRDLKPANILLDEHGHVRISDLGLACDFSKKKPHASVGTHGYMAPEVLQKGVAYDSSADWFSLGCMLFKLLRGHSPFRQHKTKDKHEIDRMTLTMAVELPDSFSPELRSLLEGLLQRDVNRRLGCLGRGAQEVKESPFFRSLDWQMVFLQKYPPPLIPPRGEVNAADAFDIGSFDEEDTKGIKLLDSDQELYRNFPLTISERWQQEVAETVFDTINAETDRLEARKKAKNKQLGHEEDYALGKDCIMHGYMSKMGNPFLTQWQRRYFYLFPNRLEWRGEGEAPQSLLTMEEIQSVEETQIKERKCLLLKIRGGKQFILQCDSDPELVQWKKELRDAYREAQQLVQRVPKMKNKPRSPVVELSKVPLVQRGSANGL
Kind of experiment: Inhibition of GRK-2 (unknown origin) preincubated with enzyme for 10 mins before adding peptide substrate and ATP measured after 1 hr by LANCE-TR-FRET assay. (TR-FRET usually uses a lanthanide donor and a delayed reading to cut background.)

For experiment [3], the target named is ALK tyrosine kinase receptor (Homo sapiens, UniProt Q9UM73). Kind of experiment: Inhibition of ALK (unknown origin).
Experiment [4] deals with Hepatocyte growth factor receptor (Homo sapiens, UniProt P08581). The experiment is described as follows: Inhibition of c-Met (unknown origin).
Hepatocyte growth factor receptor, sequence (P08581 whole entry): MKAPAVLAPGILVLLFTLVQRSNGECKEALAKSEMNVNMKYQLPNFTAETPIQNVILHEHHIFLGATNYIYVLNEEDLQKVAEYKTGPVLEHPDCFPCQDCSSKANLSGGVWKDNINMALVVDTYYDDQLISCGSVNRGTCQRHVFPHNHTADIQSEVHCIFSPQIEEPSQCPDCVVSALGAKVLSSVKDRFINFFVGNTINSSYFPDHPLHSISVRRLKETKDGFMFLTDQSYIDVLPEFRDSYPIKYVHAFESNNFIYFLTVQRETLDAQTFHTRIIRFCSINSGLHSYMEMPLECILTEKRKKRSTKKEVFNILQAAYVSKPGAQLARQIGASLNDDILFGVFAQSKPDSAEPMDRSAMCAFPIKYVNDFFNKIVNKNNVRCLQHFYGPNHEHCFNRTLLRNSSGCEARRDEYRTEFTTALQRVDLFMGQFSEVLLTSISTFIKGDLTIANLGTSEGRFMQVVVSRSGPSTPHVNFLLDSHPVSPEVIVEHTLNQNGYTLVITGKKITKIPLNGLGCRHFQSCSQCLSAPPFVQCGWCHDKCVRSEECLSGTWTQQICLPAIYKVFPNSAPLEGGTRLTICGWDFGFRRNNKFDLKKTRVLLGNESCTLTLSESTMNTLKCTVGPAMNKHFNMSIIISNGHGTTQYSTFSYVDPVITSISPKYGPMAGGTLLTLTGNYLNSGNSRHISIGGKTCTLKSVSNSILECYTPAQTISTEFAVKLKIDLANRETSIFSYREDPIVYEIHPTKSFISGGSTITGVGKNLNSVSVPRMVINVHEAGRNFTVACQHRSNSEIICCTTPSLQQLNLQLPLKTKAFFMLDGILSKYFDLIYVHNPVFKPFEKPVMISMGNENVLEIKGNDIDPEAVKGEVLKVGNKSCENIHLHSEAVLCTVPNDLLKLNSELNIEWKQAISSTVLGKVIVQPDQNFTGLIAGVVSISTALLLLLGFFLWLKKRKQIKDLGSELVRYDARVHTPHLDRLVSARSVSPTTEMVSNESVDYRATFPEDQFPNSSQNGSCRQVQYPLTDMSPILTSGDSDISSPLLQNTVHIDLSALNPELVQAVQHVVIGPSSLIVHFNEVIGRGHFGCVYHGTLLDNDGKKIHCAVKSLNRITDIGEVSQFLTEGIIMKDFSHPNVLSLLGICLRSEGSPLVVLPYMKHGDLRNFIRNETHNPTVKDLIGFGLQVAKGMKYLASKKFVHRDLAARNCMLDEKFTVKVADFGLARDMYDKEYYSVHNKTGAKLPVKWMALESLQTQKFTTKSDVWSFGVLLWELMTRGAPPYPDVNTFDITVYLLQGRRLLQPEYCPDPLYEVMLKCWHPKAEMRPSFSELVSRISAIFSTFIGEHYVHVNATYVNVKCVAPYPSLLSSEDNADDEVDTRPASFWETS

G protein-coupled receptor kinase 5, sequence (P34947 whole entry): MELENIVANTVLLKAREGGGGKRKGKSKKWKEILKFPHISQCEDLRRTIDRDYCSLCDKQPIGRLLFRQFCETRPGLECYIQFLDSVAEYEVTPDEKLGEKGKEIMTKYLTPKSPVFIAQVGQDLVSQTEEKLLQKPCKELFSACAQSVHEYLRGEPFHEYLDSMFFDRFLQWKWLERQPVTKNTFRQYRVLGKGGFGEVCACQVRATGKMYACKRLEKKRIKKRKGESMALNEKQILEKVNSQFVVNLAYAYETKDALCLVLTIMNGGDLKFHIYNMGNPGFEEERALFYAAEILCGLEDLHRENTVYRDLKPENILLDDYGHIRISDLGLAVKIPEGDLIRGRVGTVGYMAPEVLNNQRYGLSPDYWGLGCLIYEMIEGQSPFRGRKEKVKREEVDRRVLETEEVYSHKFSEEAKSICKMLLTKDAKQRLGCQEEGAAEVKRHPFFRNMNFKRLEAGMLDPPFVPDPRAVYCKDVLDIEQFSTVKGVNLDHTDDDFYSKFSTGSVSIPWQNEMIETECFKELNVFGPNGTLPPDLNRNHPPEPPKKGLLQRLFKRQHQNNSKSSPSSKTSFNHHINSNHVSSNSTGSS
ALK tyrosine kinase receptor, sequence (Q9UM73 whole entry): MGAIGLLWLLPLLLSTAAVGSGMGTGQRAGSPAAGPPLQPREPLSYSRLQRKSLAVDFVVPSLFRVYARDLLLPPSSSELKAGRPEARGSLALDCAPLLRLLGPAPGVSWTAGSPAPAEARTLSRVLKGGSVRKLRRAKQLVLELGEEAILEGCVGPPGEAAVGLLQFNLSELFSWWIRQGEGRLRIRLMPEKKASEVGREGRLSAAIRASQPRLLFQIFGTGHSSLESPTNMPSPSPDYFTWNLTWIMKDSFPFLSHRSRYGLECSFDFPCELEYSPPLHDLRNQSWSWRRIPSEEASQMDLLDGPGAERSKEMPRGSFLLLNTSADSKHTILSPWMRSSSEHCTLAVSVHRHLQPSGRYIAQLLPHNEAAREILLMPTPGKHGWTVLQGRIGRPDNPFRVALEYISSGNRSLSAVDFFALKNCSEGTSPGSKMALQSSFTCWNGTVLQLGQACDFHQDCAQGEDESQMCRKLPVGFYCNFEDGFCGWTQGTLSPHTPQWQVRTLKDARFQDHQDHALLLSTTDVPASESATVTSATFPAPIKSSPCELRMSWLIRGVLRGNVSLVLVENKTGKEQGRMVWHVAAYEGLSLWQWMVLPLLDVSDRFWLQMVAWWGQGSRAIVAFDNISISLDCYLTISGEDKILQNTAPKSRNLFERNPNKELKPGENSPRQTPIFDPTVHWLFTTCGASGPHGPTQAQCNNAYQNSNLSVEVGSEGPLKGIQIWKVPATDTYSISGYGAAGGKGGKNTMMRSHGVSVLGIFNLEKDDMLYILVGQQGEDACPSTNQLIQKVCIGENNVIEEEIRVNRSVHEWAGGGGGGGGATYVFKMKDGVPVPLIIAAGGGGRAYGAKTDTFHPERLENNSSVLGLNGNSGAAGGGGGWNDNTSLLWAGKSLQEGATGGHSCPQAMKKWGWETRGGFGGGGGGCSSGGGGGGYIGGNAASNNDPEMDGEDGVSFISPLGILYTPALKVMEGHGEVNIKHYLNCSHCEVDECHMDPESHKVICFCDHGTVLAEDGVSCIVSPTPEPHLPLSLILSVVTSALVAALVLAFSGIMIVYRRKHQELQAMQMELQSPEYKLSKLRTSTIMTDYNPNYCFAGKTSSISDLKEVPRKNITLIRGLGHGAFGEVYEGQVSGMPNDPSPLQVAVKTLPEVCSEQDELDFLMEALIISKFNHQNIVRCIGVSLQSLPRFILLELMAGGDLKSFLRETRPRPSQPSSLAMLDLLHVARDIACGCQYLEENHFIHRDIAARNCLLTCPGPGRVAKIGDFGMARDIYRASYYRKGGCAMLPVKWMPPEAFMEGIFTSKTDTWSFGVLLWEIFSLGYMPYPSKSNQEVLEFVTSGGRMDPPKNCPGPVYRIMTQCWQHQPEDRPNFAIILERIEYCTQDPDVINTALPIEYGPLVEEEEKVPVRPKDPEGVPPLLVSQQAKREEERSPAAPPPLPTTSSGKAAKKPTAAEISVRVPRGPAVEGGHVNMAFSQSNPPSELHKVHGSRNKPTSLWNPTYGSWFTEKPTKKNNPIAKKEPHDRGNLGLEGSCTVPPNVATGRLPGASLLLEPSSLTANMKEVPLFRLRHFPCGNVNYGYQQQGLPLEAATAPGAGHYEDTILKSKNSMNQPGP

Take `COc1ccc(-c2ccc3nc(-c4cc(-c5cnn(C6CCNCC6)c5)cnc4N)oc3c2)cc1`: the IC50 (as a rule, the midpoint of a concentration-inhibition curve) in experiment [1] is 3.22 µM; in experiment [2], 3.06 µM.

Turning to `Nc1ncc(-c2cnn(C3CCNCC3)c2)cc1-c1nc2ccc(NC(=O)c3ccccc3)cc2o1`, the results for the IC50 in experiment [1] and in experiment [2] were 3.49 µM and 3.19 µM, respectively.

In experiment [2], `Nc1ccc2oc(-c3cc(-c4cnn(C5CCNCC5)c4)cnc3N)nc2c1` showed a half-inhibitory concentration (IC50) of 4.22 µM.

`Nc1ncc(-c2cnn(C3CCNCC3)c2)cc1-c1nc2ccc(Oc3ccc(F)cc3)cc2o1`: the IC50 in experiment [1] is 7.9 µM; in experiment [2] it was > 10 µM.

On to `Nc1ncc(-c2cccc(C(=O)NCCN3CCOCC3)c2)cc1-c1nc2cccc(-c3ccccn3)c2o1`, for which the 50% inhibitory concentration (IC50) in experiment [2] is > 10 µM.

Take `CS(=O)(=O)Oc1ccc2nc(-c3cc(-c4cnn(C5CCNCC5)c4)cnc3N)oc2c1`: the concentration for half-maximal inhibition (IC50) in experiment [1] is 6.4 µM; in experiment [2], > 10 µM.

On to `Nc1ncc(-c2cnn(C3CCNCC3)c2)cc1-c1nc2ccc(Oc3ncccn3)cc2o1`, for which the IC50 is 3.1 µM in experiment [1] and > 10 µM in experiment [2].

For `Nc1ncc(-c2cnn(C3CCNCC3)c2)cc1-c1nc2ccc(OCc3ccc(F)cc3)cc2o1`, the IC50 in experiment [1] amounted to 1.31 µM; in experiment [2], 11.9 µM.

Take `Nc1ncc(-c2cnn(C3CCNCC3)c2)cc1-c1nc2ccc(Oc3ccc(-c4ccccc4)nn3)cc2o1`: the half-maximal inhibitory concentration (IC50) in experiment [1] worked out at 1.2 µM; in experiment [2], 3.8 µM.

Take `Nc1ncc(-c2cnn(C3CCNCC3)c2)cc1-c1nc2ccc(Oc3ccccc3)cc2o1`: the figures for the IC50 in experiment [1] and in experiment [2] were 4 µM and > 10 µM, respectively.

With `Nc1ncc(-c2cnn(C3CCNCC3)c2)cc1-c1nc2ccc(NC(=O)Nc3ccccc3)cc2o1`, the figures for the half-inhibitory concentration (IC50) in experiment [1] and in experiment [2] were 1.66 µM and 2.63 µM, respectively.

As to `Nc1ncc(-c2cnn(C3CCNCC3)c2)cc1-c1nc2ccc(Nc3ccc(F)cc3)cc2o1`, the IC50 in experiment [1] was 3.7 µM; in experiment [2], 9.3 µM.

For `Nc1ncc(-c2cnn(C3CCNCC3)c2)cc1-c1nc2ccc(Nc3c(F)cccc3F)cc2o1`, the IC50 in experiment [1] is 4.7 µM; in experiment [2], 11.5 µM.

As for `Nc1ncc(-c2cnn(C3CCNCC3)c2)cc1-c1nc2ccc(N3CCOCC3)cc2o1`, the IC50 stood at 0.81 µM in experiment [1] and 5.3 µM in experiment [2].

For `CC(C)NC(=O)c1cc2nc(-c3cc(-c4cnn(C5CCNCC5)c4)cnc3N)oc2cc1O`, the IC50 in experiment [2] is > 10 µM.

As to `Nc1ncc(-c2cnn(C3CCNCC3)c2)cc1-c1nc2ccc(-c3cn[nH]c3)cc2o1`, the figures for the IC50 in experiment [1] and in experiment [2] were 1.78 µM and 10 µM, respectively.

Consider `Nc1ncc(-c2cnn(C3CCNCC3)c2)cc1-c1nc2ccc(NC(=O)c3ccc(F)cc3)cc2o1`, for which the IC50 in experiment [2] is 0.96 µM.

Turning to `Nc1ncc(-c2cnn(C3CCNCC3)c2)cc1-c1nc2ccc(Nc3cc(F)cc(F)c3)cc2o1`, the IC50 stood at 1.25 µM in experiment [1] and 2.26 µM in experiment [2].

For the compound `Nc1ncc(-c2cnn(C3CCNCC3)c2)cc1-c1nc2ccc(Nc3ccccn3)cc2o1`, the IC50 is 4.2 µM in experiment [1] and 6.05 µM in experiment [2].

Regarding `CCCCNc1ccc2oc(-c3cc(-c4cnn(C5CCNCC5)c4)cnc3N)nc2c1`, half-maximal inhibition in experiment [2] (IC50) required 5.52 µM.

As to `Nc1ncc(-c2cnn(C3CCNCC3)c2)cc1-c1nc2cc(Nc3ccccc3)ccc2o1`, the IC50 in experiment [1] came to 3.5 µM; in experiment [2], 4.9 µM.

`Nc1ncc(-c2cnn(C3CCNCC3)c2)cc1-c1nc2ccc(Nc3cc(C(F)(F)F)cc(C(F)(F)F)c3)cc2o1`: the IC50 was found to be 4.2 µM in experiment [1] and 5.7 µM in experiment [2].

As to `Nc1ncc(-c2cnn(C3CCNCC3)c2)cc1-c1nc2cc(N3CCOCC3)ccc2o1`, the IC50 in experiment [1] is 1.05 µM; in experiment [2], 6.43 µM.

Regarding `CN(c1ccccc1)c1ccc2oc(-c3cc(-c4cnn(C5CCNCC5)c4)cnc3N)nc2c1`, the IC50 in experiment [1] was 5.05 µM; in experiment [2] it was 13 µM.

For the compound `Nc1ncc(-c2cnn(C3CCNCC3)c2)cc1-c1nc2ccc(-c3ccc4[nH]ncc4c3)cc2o1`, the values for the IC50 in experiment [1] and in experiment [2] were 1.14 µM and 4.05 µM, respectively.

In experiment [2], `CNc1ccc2oc(-c3cc(-c4cnn(C5CCNCC5)c4)cnc3N)nc2c1` had an IC50 of 6.32 µM.

Turning to `CN(C)COc1cccc(-c2cnc(N)c(-c3nc4cccc(-c5ccccn5)c4o3)c2)c1`, the IC50 in experiment [1] was 5.1 µM; in experiment [2], > 10 µM.

Turning to `Nc1ncc(-c2cnn(C3CCNCC3)c2)cc1-c1nc2cc(N3CCCC3)ccc2o1`, the IC50 in experiment [2] was 1.65 µM.

As for `COc1ccc(C(=O)Nc2ccc3nc(-c4cc(-c5cnn(C6CCNCC6)c5)cnc4N)oc3c2)cc1`, the half-inhibitory concentration (IC50) in experiment [1] was 2.09 µM; in experiment [2], 3.97 µM.

`Nc1ncc(-c2cnn(C3CCNCC3)c2)cc1-c1nc2ccc(O)c(-c3ccc4cn[nH]c4c3)c2o1` had a concentration for half-maximal inhibition (IC50) in experiment [2] of 6.5 µM.

For `COc1ccc(-c2c(O)ccc3nc(-c4cc(-c5cnn(C6CCNCC6)c5)cnc4N)oc23)cc1`, the concentration for half-maximal inhibition (IC50) in experiment [2] was > 10 µM.

For the compound `Nc1ncc(-c2cnn(C3CCNCC3)c2)cc1-c1nc2ccc(Oc3cc(Cl)ccn3)cc2o1`, the IC50 in experiment [1] was determined as 5.7 µM; in experiment [2], 17 µM.

`CCCNc1ccc2oc(-c3cc(-c4cnn(C5CCNCC5)c4)cnc3N)nc2c1`: the IC50 in experiment [2] amounted to 3.19 µM.

In experiment [2], `Nc1ncc(-c2cnn(C3CCNCC3)c2)cc1-c1nc2ccc(NC(=O)Nc3ccc(F)cc3)cc2o1` returned an IC50 of 1.72 µM.

Take `Nc1ncc(-c2cnn(C3CCNCC3)c2)cc1-c1nc2cc(-c3ccccc3)ccc2o1`: the concentration for half-maximal inhibition (IC50) in experiment [1] is 4.5 µM; in experiment [2], > 10 µM.

In the case of `CC(=O)Nc1ccc2oc(-c3cc(-c4cnn(C5CCNCC5)c4)cnc3N)nc2c1`, the values for the IC50 in experiment [1] and in experiment [2] were 3.22 µM and 3.06 µM, respectively.

`COc1ccc(N(C(=O)Nc2ccc3nc(-c4cc(-c5cnn(C6CCNCC6)c5)cnc4N)oc3c2)c2ccccc2)cc1` returned a half-maximal inhibitory concentration (IC50) in experiment [2] of 0.66 µM.

With `CN(C)c1ccc2oc(-c3cc(-c4cnn(C5CCNCC5)c4)cnc3N)nc2c1`, the IC50 in experiment [1] turned out to be 1.76 µM; in experiment [2] it was 8.27 µM.

Compound `Cc1cc2nc(-c3cc(-c4cnn(C5CCNCC5)c4)cnc3N)oc2cc1O` gave an IC50 in experiment [2] of 2.14 µM.

For the compound `COc1ccc2nc(-c3cc(-c4cnn(C5CCNCC5)c4)cnc3N)oc2c1-c1ccc2cn[nH]c2c1`, the half-inhibitory concentration (IC50) in experiment [1] amounted to 2.21 µM; in experiment [2] it was 9.16 µM.

In experiment [2], `Cc1ccc(S(=O)(=O)NC(=O)Nc2ccc3nc(-c4cc(-c5cnn(C6CCNCC6)c5)cnc4N)oc3c2)cc1` yielded a half-maximal inhibitory concentration (IC50) of 8.3 µM.

Consider `Nc1ncc(-c2cnn(C3CCNCC3)c2)cc1-c1nc2ccc(N3CCCC3)cc2o1`, for which the 50% inhibitory concentration (IC50) in experiment [3] is 340 nM; in experiment [2], 0.46 µM; in experiment [4] it was 8 nM.

In the case of `Cc1c(O)ccc2nc(-c3cc(-c4cnn(C5CCNCC5)c4)cnc3N)oc12`, the IC50 came to 2.2 µM in experiment [1] and 13 µM in experiment [2].

Regarding `Nc1ncc(-c2cnn(C3CCNCC3)c2)cc1-c1nc2ccc(N3CCCCC3)cc2o1`, the IC50 in experiment [1] was 4.3 µM; in experiment [2], 10.1 µM.

For the compound `Nc1ncc(-c2cnn(C3CCNCC3)c2)cc1-c1nc2ccc(O)c(-c3ccccc3)c2o1`, in experiment [2], the concentration for half-maximal inhibition (IC50) stood at 9.7 µM.

For `Nc1ncc(-c2cnn(C3CCNCC3)c2)cc1-c1nc2ccc(NC(=O)c3ccc(C(F)(F)F)cc3)cc2o1`, the IC50 in experiment [1] came to 2.83 µM; in experiment [2], 3.2 µM.

Turning to `Nc1ccc2nc(-c3cc(-c4cnn(C5CCNCC5)c4)cnc3N)oc2c1`, the concentration for half-maximal inhibition (IC50) in experiment [1] came out at 1.94 µM; in experiment [2], 6.2 µM.

For the compound `CCc1ccc2nc(-c3cc(-c4cnn(C5CCNCC5)c4)cnc3N)oc2c1O`, the half-inhibitory concentration (IC50) is 3.4 µM in experiment [1] and > 10 µM in experiment [2].

As for `CC(C)Nc1ccc2nc(-c3cc(-c4cnn(C5CCNCC5)c4)cnc3N)oc2c1`, the 50% inhibitory concentration (IC50) in experiment [2] was > 10 µM.

In the case of `Nc1ncc(-c2cnn(C3CCNCC3)c2)cc1-c1nc2ccc(OCc3ccccc3)cc2o1`, the figures for the IC50 in experiment [1] and in experiment [2] were 6.9 µM and > 10 µM, respectively.

Turning to `Nc1ncc(-c2cnn(C3CCNCC3)c2)cc1-c1nc2cc(N3CCCCC3)ccc2o1`, in experiment [2], the concentration for half-maximal inhibition (IC50) turned out to be 0.85 µM.

As to `N#Cc1ccnc(Oc2ccc3nc(-c4cc(-c5cnn(C6CCNCC6)c5)cnc4N)oc3c2)c1`, the IC50 turned out to be 3.6 µM in experiment [1] and 8.1 µM in experiment [2].

(Values after ChEMBL document CHEMBL3091334, “Design and synthesis of novel 3-(benzo[d]oxazol-2-yl)-5-(1-(piperidin-4-yl)-1H-pyrazol-4-yl)pyridin-2-amine derivatives as selective G-protein-coupled receptor kinase-2 and -5 inhibitors” (Bioorg Med Chem Lett, 2013).)
